# Patent US5618812A, “Benzodiazepine derivatives” (Merck Sharp & Dohme, Ltd., priority 1992, dated 1997)
# Counter-ions that a name gives are not always drawn. Like-named read-outs stand apart in the source and are kept apart here.
# Tests used:
# CCK-A = biological target: T1, CCK-A (Rattus norvegicus, UniProt P30551); assay: biochemical; assay type: binding
# T1 sequence (P30551 1-444): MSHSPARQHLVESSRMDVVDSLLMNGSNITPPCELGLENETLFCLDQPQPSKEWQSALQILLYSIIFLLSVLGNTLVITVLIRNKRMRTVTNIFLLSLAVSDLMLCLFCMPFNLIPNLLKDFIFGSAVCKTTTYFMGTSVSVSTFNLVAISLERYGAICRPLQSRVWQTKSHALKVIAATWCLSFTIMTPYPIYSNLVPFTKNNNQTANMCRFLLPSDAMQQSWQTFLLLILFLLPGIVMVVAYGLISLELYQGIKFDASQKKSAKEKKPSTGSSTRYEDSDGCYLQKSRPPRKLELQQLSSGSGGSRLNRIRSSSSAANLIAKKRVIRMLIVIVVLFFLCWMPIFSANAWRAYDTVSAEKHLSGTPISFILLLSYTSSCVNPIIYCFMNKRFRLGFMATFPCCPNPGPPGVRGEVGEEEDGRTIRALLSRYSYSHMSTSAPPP
# Experimental: (§1) The CCK-A and CCK-B antagonising activity of the compounds described herein was evaluated using the assays described in published European patent application no. 0514133. The method essentially involves determining the concentration of the test compound required to displace 50% of the specific ^125 I-CCK from rat pancreas (CCK-A) or guinea pig brain (CCK-B).
# CCK-B = biological target: T2, CCK-B (Cavia porcellus, UniProt H0VZC5); assay: displacement of specific 125I-CCK from guinea pig brain (CCK-B receptor binding)
# T2 construct: guinea pig brain (CCK-B); from tissue; host or cells: guinea pig brain
# T2 sequence (H0VZC5 1-426): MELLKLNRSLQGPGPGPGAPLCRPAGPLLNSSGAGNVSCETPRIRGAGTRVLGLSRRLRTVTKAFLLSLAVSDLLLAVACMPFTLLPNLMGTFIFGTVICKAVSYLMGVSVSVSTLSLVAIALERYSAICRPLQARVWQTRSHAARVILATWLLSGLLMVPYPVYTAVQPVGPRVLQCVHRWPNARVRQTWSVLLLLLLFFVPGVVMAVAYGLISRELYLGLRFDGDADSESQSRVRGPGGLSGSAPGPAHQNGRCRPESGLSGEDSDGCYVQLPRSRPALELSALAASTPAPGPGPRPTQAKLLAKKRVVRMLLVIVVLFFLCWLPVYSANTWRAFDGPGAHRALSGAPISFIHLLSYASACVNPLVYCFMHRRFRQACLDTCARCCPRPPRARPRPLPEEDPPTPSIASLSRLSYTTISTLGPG
# Experimental: as §1, with “(CCK-B). The data in Table 1 were obtained for compounds of the Examples.” for “(CCK-B).”
# [1] = rat pancreas (CCK-A), 125I-CCK, read-out: CCK RECEPTOR BINDING RESULTS IC50 125I-CCK Pancreas
# [2] = read-out: CCK RECEPTOR BINDING RESULTS IC50 125I-CCK Brain
# [3] = CCK RECEPTOR BINDING RESULTS IC50 125I-CCK Pancreas, rat pancreas (CCK-A), 125I-CCK
# [4] = CCK RECEPTOR BINDING RESULTS IC50 125I-CCK Brain
# [5] = read-out: CCK RECEPTOR BINDING RESULTS IC50 125I-CCK Pancreas
SMILES,IC50 (CCK-A; [1]),IC50 (CCK-B; [2]),IC50 (CCK-A; [5]),IC50 (CCK-A; [3]),IC50 (CCK-B; [4])
"CN1C(=O)C(NC(=O)c2cc3ccccc3[nH]2)N=C(N2CC3CCC(CC3)C2)c2ccccc21 (single isomer, unassigned; (+)) [Example 89, (+)-N-(5-(3-Azabicyclo[3,2,2]nonan-3-yl)-2,3-ihydro-1-methyl-2-oxo-1H-1,4-benzodiazepin-3-yl)-1H-indole-2-carboxamide dihydrochloride]",0.26 nM,653 nM,,,
"CN1C(=O)C(NC(=O)Nc2cccc(F)c2)N=C(N2CC3CCC(CC3)C2)c2ccccc21 (single isomer, unassigned; (-)) [Example 36, (-)-N-[5-(3-Azabicyclo[3,2,2]nonan-3-yl)-2,3-dihydro-1-methyl-2-oxo-1H-1,4-benzodiazepin-3-yl]-N'-[3-fluorophenyl]urea Hydrochloride]",,,,1400 nM,0.32 nM
"CN1C(=O)C(NC(=O)Nc2ccc3c(c2)CCC3)N=C(N2CC3CCC(CC3)C2)c2ccccc21 (single isomer, unassigned; (-)) [Example 41, (-)-N-[5-(3-Azabicyclo[3,2,2]nonan-3-yl)-2,3-dihydro-1-methyl-2-oxo-1H-1,4-benzodiazepin-3-yl]-N'-[5-indanyl]urea]",> 3000 nM,,,,0.37 nM
"Cc1ccc(NC(=O)NC2N=C(N3CC4CCC(CC4)C3)c3ccccc3N(C)C2=O)cc1F (single isomer, unassigned; (-)) [Example 45, (-)-N-[5-(3-Azabicyclo[3,2,2]nonan-3-yl)-2,3-dihydro-1-methyl-2-oxo-1H-1,4-benzodiazepin-3-yl]-N'-[3-fluoro-4-methylphenyl]urea Hydrochloride]",,,,> 3000 nM,0.42 nM
"CN1C(=O)C(NC(=O)Nc2cccc(I)c2)N=C(N2CC3CCC(CC3)C2)c2ccccc21 (single isomer, unassigned; (-)) [Example 48, (-)-N-[5-(3-Azabicyclo[3,2,2]nonan-3-yl)-2,3-dihydro-1-methyl-2-oxo-1H-1,4-benzodiazepin-3-yl]-N'-[3-iodophenyl]urea]",2420 nM,,,,1.11 nM
"Cc1cc(NC(=O)NC2N=C(N3CC4CCC(CC4)C3)c3ccccc3N(C)C2=O)ccc1F (single isomer, unassigned; (-)) [Example 53, (-)-N-[5-(3-Azabicyclo[3,2,2]nonan-3-yl)-2,3-dihydro-1-methyl-2-oxo-1H-1,4-benzodiazepin-3-yl]-N'-[4-fluoro-3-methylphenyl]urea Hydrochloride]",,,,3760 nM,0.18 nM
"CN1C(=O)C(NC(=O)Nc2cccc(C(F)(F)F)c2)N=C(N2CC3CCC(CC3)C2)c2ccccc21 (single isomer, unassigned; (-)) [Example 55, (-)-N-[5-(3-Azabicyclo[3,2,2]nonan-3-yl)-2,3-dihydro-1-methyl]-2-oxo-1H-1,4-benzodiazepin-3-yl]-N'-[3-trifluoromethylphenyl]urea Hydrochloride]",> 3000 nM,,,,0.73 nM
"CCCN1C(=O)C(NC(=O)Nc2cccc(C)c2)N=C(N(C)C2CCCCC2)c2ccccc21 (single isomer, unassigned; (-)) [Example 61, (-)-5-(N-Cyclohexyl-N-methylamino)-2,3-dihydro-2-oxo-1-propyl-1H-1,4-benzodiazepin-3-yl-N'[3-methylphenyl]urea]",704 nM,0.22 nM,,,
"CN1C(=O)C(NC(=O)Nc2ccc3c(c2)CCC3)N=C(N(C)C2CCCCCC2)c2ccccc21 (single isomer, unassigned; (-)) [Example 70, (-)-5-(N-Cycloheptyl-N-methylamino)-2,3-dihydro-1-methyl-2-oxo-1H-1,4-benzodiazepin-3-yl-N'-[5-indanyl]urea. Hydrochloride]",> 3000 nM,0.61 nM,,,
"CN1C(=O)C(NC(=O)c2cc3ccccc3[nH]2)N=C(N2CC3CCC(CC3)C2)c2ccccc21 (single isomer, unassigned; (-)) [Example 88, (-)-N-(5-(3-Azabicyclo[3,2,2]nonan-3-yl)-2,3-dihydro-1-methyl-2-oxo-1H-1,4-benzodiazepin-3-yl)-1H-indole-2-carboxamide hydrochloride]",,,,393 nM,66 nM
"C[C@@H]1CCC[C@H](C)N1C1=NC(NC(=O)Nc2ccc3c(c2)CCC3)C(=O)N(C)c2ccccc21 (stereo partly drawn) [Example 13, N-[3(R,S)-2,3-Dihydro-5-(cis-2.6-dimethylpiperidin-1-yl)-1-methyl-2-oxo-1H-1,4-benzodiazepin-3-yl]N'-[indan-5-yl]urea]",496 nM,1.53 nM,,,

# The next lines start with results.
IC50 (CCK-A; [1]),IC50 (CCK-B; [2]),IC50 (CCK-A; [5]),SMILES,IC50 (CCK-A; [3]),IC50 (CCK-B; [4])
53.4 nM,26.6 nM,,"Cc1cccc(NC(=O)NC2N=C(N(C)C3CCCCCC3)c3ccccc3N(C)C2=O)c1 (single isomer, unassigned; (+)) [Example 68, (+)-5-(N-Cycloheptyl-N-methylamino)-2,3-dihydro-1-methyl-2-oxo-1H-1,4-benzodiazepin-3-yl-N'-[3-methylphenyl]urea. Hydrochloride]",,
2180 nM,0.28 nM,,"CC1CCN(C2=NC(NC(=O)Nc3ccc4c(c3)CCC4)C(=O)N(C)c3ccccc32)CC1 (single isomer, unassigned; (-)) [Example 12, (-)-N-[2,3,Dihydro-1-methyl-5-(4-methylpiperidin-1-yl)-2-oxo-1H-1,4-benzodiazepin-3-yl]N'-[indan-5-yl]urea hydrochloride]",,
> 3000 nM,0.27 nM,,"Cc1cccc(NC(=O)NC2N=C(N3CCCC(C)(C)C3)c3ccccc3N(C)C2=O)c1 (single isomer, unassigned; (-)) [Example 26, (-)-N-[2,3-dihydro-(3,3-dimethylpiperidin-1-yl)-1-methyl-2-oxo-1H-1,4-benzodiazepin-3-yl]N'-[3-methylphenyl]urea]",,
,0.17 nM,4010 nM,"Cc1cccc(NC(=O)NC2N=C(N3CC4CCC(C4)C3)c3ccccc3N(C)C2=O)c1 (single isomer, unassigned; (-)) [Example 39, (-)-N-[5-(3-Azabicyclo[3,2,1]octan-3-yl)-2,3-dihydro-1-methyl-2-oxo-1H-1,4-benzodiazepin-3-yl]-N'-[3-methylphenyl]urea Hydrochloride]",,
,2 nM,2260 nM,"Cc1cccc(NC(=O)NC2N=C(N3C[C@H]4CCCC[C@H]4C3)c3ccccc3N(C)C2=O)c1 (single isomer, unassigned; (-)) [Example 58, (-)-N-[2,3-Dihydro-1-methyl-5-(cis-octahydroisoindol-2-yl)-2-oxo-1H-1,4-benzodiazepin-3-yl]-N'-[3-methylphenyl]urea hydrochloride]",,
2070 nM,0.22 nM,,"Cc1cccc(NC(=O)NC2N=C(N(C)C3CCCCC3)c3ccccc3N(C)C2=O)c1 (single isomer, unassigned; (-)) [Example 64, (-)5-(N-Cyclohexyl-N-methylamine)-2,3-dihydro-2-oxo-1-methyl-1H-1,4-benzodiazepin-3-yl-N'-[3-methylphenyl]urea. Hydrochloride]",,
2000 nM,0.1 nM,,"Cc1cccc(NC(=O)NC2N=C(N(C)C3CCCCCC3)c3ccccc3N(C)C2=O)c1 (single isomer, unassigned; (-)) [Example 67, (-)-5-(N-Cycloheptyl-N-methylamino)-2,3-dihydro-1-methyl-2-oxo-1H-1,4-benzodiazepin-3-yl-N'-[3-methylphenyl]urea, Hydrochloride]",,
235 nM,10.9 nM,,"Cc1cccc(NC(=O)NC2N=C(N3[C@H](C)CCC[C@@H]3C)c3ccccc3N(C)C2=O)c1 (stereo partly drawn) [Example 6, N-[3(R,S)-2,3-Dihydro-5-(cis-2,6-dimethylpiperidin-1-yl)-1-methyl-2-oxo-1H-1,4-benzodiazepin-3-yl]N'-[3-methylphenyl]urea]",,
2650 nM,19.1 nM,,"Cc1cccc(NC(=O)NC2N=C(N3C[C@@H](C)O[C@@H](C)C3)c3ccccc3N(C)C2=O)c1 (stereo partly drawn) [Example 16, N-[3(R,S)-2,3-Dihydro-5-(cis-2,6-dimethylmorpholin-4-yl)-1-methyl-2-oxo-1H-1,4-benzodiazepin-3-yl]N'-[3-methylphenyl]urea]",,
